Results from ChEMBL document CHEMBL1201862, “PubChem BioAssay data set” (2004).
Calls of active or inactive are those of the source. Cut-off read from the data, not from the text of the source, for most assays here: actives have a measured IC50 and inactives only a lower limit.

Tests used:
[1] = biological target: T1, Dual specificity protein phosphatase 3 (Homo sapiens, UniProt P51452); assay: VHR1 inhibitor Ki determination, SAR follow-up, biochemical, colorimetric (AID 2004)
[2] = biological target: T2, DNA dC->dU-editing enzyme APOBEC-3G (Homo sapiens, UniProt Q9HC16); assay: SAR analysis of small molecule inhibitors of APOBEC3G DNA Deaminase via a fluorescence-based single-stranded DNA deaminase assay - Set 2.; format: functional; conditions: read-out: IC50_Mean
T2 sequence (Q9HC16 whole entry): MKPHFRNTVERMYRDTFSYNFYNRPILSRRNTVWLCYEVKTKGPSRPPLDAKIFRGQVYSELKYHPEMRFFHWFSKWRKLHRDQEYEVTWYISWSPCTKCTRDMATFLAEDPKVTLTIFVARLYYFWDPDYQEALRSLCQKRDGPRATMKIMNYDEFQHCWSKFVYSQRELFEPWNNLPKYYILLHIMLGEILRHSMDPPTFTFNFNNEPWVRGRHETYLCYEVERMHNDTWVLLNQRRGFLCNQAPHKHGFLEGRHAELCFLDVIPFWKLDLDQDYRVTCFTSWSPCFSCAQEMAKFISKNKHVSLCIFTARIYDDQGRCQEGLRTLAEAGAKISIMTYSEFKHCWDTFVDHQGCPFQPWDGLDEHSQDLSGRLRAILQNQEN

[3] = biological target: T3, Polyadenylate-binding protein 1 (Homo sapiens, UniProt P11940); assay: PABP poly(A) RNA binding inhibitors, primary screen, biochemical, fluorescence polarization, uHTS (AID 2014)
T3 sequence (P11940 whole entry): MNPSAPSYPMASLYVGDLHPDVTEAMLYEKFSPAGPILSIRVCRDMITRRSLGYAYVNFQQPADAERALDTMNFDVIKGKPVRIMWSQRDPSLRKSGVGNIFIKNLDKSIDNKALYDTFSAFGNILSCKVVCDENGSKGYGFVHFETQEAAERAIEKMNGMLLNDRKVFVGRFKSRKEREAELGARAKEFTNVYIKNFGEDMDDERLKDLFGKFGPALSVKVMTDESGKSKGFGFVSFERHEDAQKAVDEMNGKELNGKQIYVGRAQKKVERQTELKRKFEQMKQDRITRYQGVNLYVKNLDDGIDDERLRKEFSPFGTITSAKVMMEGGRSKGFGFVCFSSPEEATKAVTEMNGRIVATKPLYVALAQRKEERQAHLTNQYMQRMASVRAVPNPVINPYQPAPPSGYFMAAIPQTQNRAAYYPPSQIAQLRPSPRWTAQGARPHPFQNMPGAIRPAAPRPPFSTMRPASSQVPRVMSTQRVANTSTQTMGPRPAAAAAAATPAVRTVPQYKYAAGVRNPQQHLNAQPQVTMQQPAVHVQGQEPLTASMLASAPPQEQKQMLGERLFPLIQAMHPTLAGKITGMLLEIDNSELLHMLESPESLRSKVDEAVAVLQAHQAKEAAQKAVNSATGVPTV

[4] = biological target: T2, DNA dC->dU-editing enzyme APOBEC-3G; format: functional
[5] = biological target: T2, DNA dC->dU-editing enzyme APOBEC-3G; assay: APOBEC3G deaminase inhibitors, SAR follow-up, biochemical, fluorescence, single-stranded DNA substrate (AID 602136); format: functional; conditions: read-out: IC50_Mean
[6] = biological target: T4, Eukaryotic translation initiation factor 4H (Homo sapiens, UniProt Q15056); assay: human eIF4H binding inhibitors, primary screen, translation initiation inhibitor project, biochemical, uHTS, fluorescence polarization (AID 2012)
[7] = biological target: T5, DNA dC->dU-editing enzyme APOBEC-3A (Homo sapiens, UniProt P31941); assay: Dose Response confirmation of small molecule APOBEC3A DNA Deaminase Inhibitors via a fluorescence-based single-stranded DNA deaminase assay. [Related pubchem assays (depositor defined):AID493011, AID493024]; format: functional
T5 sequence (P31941 whole entry): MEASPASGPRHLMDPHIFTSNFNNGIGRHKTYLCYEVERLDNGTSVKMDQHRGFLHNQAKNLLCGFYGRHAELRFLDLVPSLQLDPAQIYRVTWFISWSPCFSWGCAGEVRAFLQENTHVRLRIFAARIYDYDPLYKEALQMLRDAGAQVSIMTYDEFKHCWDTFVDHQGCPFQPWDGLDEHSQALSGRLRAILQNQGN

[8] = biological target: T4, Eukaryotic translation initiation factor 4H; assay: eIF4H inhibition in translation initiation, SAR follow-up (AID 435011); format: functional
[9] = biological target: T3, Polyadenylate-binding protein 1; assay: PABP inhibition in translation initiation, SAR follow-up (AID 435018); format: functional
[10] = biological target: T5, DNA dC->dU-editing enzyme APOBEC-3A; assay: SAR analysis of small molecule inhibitors of APOBEC3A DNA Deaminase via a fluorescence-based single-stranded DNA deaminase assay - Set 2.; format: functional; conditions: read-out: IC50_Mean
[11] = biological target: T5, DNA dC->dU-editing enzyme APOBEC-3A; assay: SAR analysis of small molecule inhibitors of APOBEC3A DNA Deaminase via a fluorescence-based single-stranded DNA deaminase assay.; format: functional; conditions: read-out: IC50_Mean
[12] = biological target: T6, Kappa-type opioid receptor (Homo sapiens, UniProt P41145); assay: SAR analysis of small molecule antagonists of the kappa opioid receptor via a luminescent beta-arrestin assay - Set 4. [Related pubchem assays (depositor defined):AID1777, AID1778, AID1785, AID1786, AID1966, AID2133, AID2136, AID2285]; format: functional
T6 sequence (P41145 whole entry): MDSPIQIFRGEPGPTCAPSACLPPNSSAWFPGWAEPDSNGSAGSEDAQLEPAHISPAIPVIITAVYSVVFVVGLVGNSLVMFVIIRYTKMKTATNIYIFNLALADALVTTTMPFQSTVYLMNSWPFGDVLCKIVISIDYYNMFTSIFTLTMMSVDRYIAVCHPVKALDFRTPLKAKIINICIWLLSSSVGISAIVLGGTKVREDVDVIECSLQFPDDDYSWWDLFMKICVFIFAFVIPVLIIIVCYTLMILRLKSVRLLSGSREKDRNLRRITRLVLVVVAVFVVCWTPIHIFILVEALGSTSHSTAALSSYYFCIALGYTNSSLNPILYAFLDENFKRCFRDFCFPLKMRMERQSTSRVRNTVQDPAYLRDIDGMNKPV

[13] = biological target: T6, Kappa-type opioid receptor; assay: SAR analysis of Antagonists of the Kappa Opioid Receptor (KOR) using an Image-Based Assay - Set 4. [Related pubchem assays (depositor defined):AID1777, AID1785]; format: functional
[14] = biological target: Mu-type opioid receptor (Homo sapiens, UniProt P35372); assay: SAR Analysis of Antagonists of the MOR Receptor using an Image-Based Assay - Set 3. [Related pubchem assays (depositor defined):AID1777, AID1785, AID1786, AID1966, AID2133, AID2136, AID2284, AID2285, AID2420]; format: functional
Sequence of Mu-type opioid receptor (P35372 whole entry): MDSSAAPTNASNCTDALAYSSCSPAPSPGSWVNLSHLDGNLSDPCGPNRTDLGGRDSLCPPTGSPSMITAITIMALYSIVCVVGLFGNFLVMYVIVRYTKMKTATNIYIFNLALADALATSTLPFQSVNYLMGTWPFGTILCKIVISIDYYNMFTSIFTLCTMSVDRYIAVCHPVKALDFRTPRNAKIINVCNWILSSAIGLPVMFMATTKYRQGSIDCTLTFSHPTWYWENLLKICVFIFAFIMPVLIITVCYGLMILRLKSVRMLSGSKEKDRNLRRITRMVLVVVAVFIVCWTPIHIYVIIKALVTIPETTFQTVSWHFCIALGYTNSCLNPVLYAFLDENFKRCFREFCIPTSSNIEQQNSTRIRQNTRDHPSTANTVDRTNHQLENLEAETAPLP

[15] = biological target: Delta-type opioid receptor (Homo sapiens, UniProt P41143); assay: SAR Analysis of Antagonists of the DOR Receptor using an Image-Based Assay - Set 3. [Related pubchem assays (depositor defined):AID1777, AID1785]; format: functional;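 note: U2OS cells expressing DOR1 and beta-arrestin GFP stimulated with 100 nM SNC80; imaging of GFP-tagged beta-arrestin moving into spots after receptor activation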
Sequence of Delta-type opioid receptor (P41143 whole entry): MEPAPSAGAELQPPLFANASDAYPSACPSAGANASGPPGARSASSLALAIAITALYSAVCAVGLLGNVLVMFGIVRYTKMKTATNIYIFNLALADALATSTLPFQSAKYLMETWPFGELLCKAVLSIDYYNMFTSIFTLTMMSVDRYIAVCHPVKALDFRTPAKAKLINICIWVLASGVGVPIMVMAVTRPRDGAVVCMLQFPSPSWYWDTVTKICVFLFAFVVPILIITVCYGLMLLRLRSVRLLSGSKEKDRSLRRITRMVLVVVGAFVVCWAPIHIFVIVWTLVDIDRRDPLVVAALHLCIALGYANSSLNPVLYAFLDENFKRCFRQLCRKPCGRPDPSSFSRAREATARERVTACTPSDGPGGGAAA

[16] = biological target: T7, Tyrosine-protein phosphatase non-receptor type 22 (Homo sapiens, UniProt Q9Y2R2); assay: LYP (PTPN22) phosphatase inhibitor potency, SAR follow-up, biochemical, pCAP fluorogenic substrate, fluorescence, set 3 (AID 449727); format: functional
T7 sequence (Q9Y2R2 whole entry): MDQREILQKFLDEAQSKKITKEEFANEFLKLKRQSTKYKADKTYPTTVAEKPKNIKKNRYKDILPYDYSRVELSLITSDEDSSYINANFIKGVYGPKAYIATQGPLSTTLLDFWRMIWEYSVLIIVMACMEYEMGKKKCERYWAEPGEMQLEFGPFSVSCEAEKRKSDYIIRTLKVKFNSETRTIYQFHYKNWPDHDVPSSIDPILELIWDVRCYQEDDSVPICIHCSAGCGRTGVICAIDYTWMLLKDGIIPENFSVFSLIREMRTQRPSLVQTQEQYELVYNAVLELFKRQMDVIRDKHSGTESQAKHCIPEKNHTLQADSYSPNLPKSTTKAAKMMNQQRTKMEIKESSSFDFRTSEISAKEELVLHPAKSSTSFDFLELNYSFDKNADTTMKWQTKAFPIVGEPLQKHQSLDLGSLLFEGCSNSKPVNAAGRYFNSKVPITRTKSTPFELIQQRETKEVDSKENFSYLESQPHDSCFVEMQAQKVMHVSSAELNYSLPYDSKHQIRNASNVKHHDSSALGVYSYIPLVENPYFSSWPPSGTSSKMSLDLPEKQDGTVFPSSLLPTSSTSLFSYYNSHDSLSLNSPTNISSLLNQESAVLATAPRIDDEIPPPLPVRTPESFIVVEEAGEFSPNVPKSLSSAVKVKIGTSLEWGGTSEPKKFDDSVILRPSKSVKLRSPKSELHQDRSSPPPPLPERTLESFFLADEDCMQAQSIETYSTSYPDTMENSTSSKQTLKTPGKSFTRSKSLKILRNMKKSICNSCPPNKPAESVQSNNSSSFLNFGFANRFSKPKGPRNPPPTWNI

[17] = biological target: Tyrosine-protein phosphatase non-receptor type 12 (Homo sapiens, UniProt Q05209); assay: SAR Selectivity Analysis of small molecule inhibitors of PEST using pCAP in a fluorescence assay. [Related pubchem assays (depositor defined):AID1779, AID1784, AID2135]; format: functional
Sequence of Tyrosine-protein phosphatase non-receptor type 12 (Q05209 whole entry): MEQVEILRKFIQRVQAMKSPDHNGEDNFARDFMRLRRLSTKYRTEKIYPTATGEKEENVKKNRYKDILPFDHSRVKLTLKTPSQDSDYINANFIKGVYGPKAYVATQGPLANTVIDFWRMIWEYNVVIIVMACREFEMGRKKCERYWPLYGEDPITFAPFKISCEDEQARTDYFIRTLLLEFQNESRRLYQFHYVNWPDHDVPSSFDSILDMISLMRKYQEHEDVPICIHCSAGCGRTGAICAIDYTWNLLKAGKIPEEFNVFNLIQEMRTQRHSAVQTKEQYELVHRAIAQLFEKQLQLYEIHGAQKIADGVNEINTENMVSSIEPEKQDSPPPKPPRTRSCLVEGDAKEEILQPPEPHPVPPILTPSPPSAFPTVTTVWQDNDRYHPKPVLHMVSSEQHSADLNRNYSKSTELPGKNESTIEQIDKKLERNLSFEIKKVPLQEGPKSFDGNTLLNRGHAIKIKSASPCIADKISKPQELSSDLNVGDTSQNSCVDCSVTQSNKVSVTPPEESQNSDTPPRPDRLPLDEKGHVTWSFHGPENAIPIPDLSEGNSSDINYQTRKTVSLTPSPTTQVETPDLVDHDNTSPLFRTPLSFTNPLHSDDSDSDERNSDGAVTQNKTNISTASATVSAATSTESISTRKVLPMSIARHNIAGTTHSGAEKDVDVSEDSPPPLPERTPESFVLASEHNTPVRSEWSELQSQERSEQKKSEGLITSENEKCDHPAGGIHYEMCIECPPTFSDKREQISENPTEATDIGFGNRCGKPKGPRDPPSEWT

[18] = biological target: T7, Tyrosine-protein phosphatase non-receptor type 22; assay: SAR LYP1 Fluorescent Assay using OMFP substrate for In Vitro dose response studies - Set 3. [Related pubchem assays (depositor defined):AID1779, AID1784, AID2140, AID2686]; format: functional
[19] = biological target: T8, Dual specificity protein phosphatase 6 (Rattus norvegicus, UniProt Q64346); format: functional;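 note: confirmatory in vitro dose-response testing of MKP-3 inhibition; recombinant His-tagged MKP-3 made in E. coli BL21 with OMFP substrate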
T8 sequence (Q64346 whole entry): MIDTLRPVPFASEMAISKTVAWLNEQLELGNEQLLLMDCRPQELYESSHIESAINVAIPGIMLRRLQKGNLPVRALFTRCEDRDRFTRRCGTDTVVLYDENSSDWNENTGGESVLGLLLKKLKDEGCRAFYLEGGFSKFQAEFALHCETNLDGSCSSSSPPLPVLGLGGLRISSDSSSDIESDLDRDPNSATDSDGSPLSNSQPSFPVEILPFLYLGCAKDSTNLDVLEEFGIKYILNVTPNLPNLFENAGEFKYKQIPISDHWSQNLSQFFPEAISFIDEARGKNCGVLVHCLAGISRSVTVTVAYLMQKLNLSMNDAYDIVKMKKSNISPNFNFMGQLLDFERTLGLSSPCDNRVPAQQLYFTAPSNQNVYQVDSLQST

[20] = biological target: T1, Dual specificity protein phosphatase 3; assay: SAR VHR1 absorbance Assay for In Vitro dose response studies. [Related pubchem assays (depositor defined):AID1654, AID1661, AID1878, AID1992, AID2004]
[21] = biological target: T1, Dual specificity protein phosphatase 3; assay: SAR VHR1 Fluorescent Assay for In Vitro dose response studies. [Related pubchem assays (depositor defined):AID1654, AID1661, AID1878, AID1992, AID2004, AID2070, AID2085]; format: functional
[22] = biological target: T9, Tyrosine-protein phosphatase non-receptor type 7 (Homo sapiens, UniProt P35236); assay: HePTP (PTPN7) phosphatase inhibitor potency, SAR follow-up, biochemical, set 2 (AID 449736); format: functional
T9 sequence (P35236 whole entry): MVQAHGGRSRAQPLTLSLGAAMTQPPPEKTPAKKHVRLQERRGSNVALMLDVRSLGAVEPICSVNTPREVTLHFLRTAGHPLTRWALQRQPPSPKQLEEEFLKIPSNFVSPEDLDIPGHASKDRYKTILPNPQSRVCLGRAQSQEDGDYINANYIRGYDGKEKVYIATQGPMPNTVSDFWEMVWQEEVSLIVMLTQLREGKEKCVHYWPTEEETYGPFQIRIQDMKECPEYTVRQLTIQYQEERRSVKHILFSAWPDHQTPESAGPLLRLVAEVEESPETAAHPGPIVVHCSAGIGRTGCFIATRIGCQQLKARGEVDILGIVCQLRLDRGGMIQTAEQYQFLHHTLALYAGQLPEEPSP

[23] = biological target: T9, Tyrosine-protein phosphatase non-receptor type 7; assay: redox-dependent HePTP inhibition, mechanism study, biochemical, fluorescence (AID 2068); format: functional
[24] = biological target: Voltage-dependent T-type calcium channel subunit alpha-1H (Homo sapiens, UniProt O95180); assay: Cav3.2 T-type channel inhibitors, synthesized analogs, SAR follow-up, cell-based, synthetic library set 2, HEK293 HH8, Fluo-4 (AID 493023); format: functional
[25] = biological target: Nucleotide-binding oligomerization domain-containing protein 1 (Homo sapiens, UniProt Q9Y239); assay: NOD1 signaling inhibitors, SAR follow-up, revised (AID 2333); format: functional
[26] = test system: HEK293; assay: cells; conditions: Homo sapiens;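 note: cells exposed to compound for 14 hours overnight before viability readout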
[27] = biological target: Tumor necrosis factor (Homo sapiens, UniProt P01375); assay: TNFa-triggered NF-kB activation inhibitors, SAR follow-up, cell-based, revised (AID 2337); format: functional
Sequence of Tumor necrosis factor (P01375 whole entry): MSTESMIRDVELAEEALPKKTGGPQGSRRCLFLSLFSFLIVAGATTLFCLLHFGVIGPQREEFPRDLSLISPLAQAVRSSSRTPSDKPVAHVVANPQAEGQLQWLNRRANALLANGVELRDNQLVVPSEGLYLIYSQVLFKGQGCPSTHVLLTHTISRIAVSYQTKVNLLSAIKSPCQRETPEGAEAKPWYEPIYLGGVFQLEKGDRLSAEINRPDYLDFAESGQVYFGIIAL

[28] = biological target: Beta-galactosidase (Escherichia coli, UniProt Q8VNN2); assay: beta-galactosidase enzyme inhibitors and activators, dose response, artefact control for CCR6 antagonist project, biochemical, E. coli enzyme, set 3 (AID 504712); format: functional
[29] = biological target: G-protein coupled receptor 55 (Homo sapiens, UniProt Q9Y2T6); assay: GPR55 agonists via beta-arrestin recruitment, primary screen, imaging, U2OS cells, beta-arrestin-GFP redistribution (AID 1961); format: functional
Sequence of G-protein coupled receptor 55 (Q9Y2T6 whole entry): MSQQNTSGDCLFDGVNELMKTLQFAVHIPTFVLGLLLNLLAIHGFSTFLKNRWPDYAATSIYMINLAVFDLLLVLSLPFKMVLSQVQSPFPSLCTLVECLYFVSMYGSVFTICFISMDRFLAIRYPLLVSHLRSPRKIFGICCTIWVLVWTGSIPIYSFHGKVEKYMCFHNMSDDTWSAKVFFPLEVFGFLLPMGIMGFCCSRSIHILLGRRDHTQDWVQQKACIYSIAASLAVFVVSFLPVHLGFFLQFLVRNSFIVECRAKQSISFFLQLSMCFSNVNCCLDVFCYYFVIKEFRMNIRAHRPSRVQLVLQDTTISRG

[30] = biological target: T6, Kappa-type opioid receptor; assay: SAR analysis of Antagonists of the Kappa Opioid Receptor (KOR) using an Image-Based Assay - Set 3. [Related pubchem assays (depositor defined):AID1777, AID1785]; format: functional
[31] = biological target: T6, Kappa-type opioid receptor; assay: SAR analysis of small molecule antagonists of the kappa opioid receptor via a luminescent beta-arrestin assay - Set 3. [Related pubchem assays (depositor defined):AID1777, AID1778, AID1785, AID1786, AID1966, AID2133, AID2136, AID2285, AID2495]; format: functional
[32] = biological target: T10, Ubiquitin-conjugating enzyme E2 N (Homo sapiens, UniProt P61088); format: functional
T10 sequence (P61088 whole entry): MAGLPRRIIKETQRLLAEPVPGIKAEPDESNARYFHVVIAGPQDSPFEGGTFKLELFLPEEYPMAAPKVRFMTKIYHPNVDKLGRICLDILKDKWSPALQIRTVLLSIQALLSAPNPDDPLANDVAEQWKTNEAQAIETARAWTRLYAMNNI

[33] = biological target: T11, Bcl-2-related protein A1 (Mus musculus, UniProt Q07440); format: functional;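 note: confirmatory dose–response counterscreen on Bfl-1, used to check hits from a UBC13 polyubiquitin inhibitor campaign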
T11 sequence (Q07440 whole entry): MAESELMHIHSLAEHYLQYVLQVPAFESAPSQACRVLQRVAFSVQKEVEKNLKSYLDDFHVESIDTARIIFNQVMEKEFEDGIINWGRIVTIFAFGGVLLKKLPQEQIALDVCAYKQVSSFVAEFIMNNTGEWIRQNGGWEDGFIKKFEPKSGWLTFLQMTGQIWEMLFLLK

[34] = biological target: T10, Ubiquitin-conjugating enzyme E2 N; format: functional; remark: listed apart in the source

T1 sequence (P51452 whole entry): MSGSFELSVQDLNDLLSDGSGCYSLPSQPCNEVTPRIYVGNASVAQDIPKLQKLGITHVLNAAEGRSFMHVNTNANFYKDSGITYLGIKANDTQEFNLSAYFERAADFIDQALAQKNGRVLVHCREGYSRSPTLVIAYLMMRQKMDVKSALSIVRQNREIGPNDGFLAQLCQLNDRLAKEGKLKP

## COc1ccccc1CC(=N)NOC(=O)c1ccco1
[1]
  Ki: 48.4 µM (inactive)

## CCOC(=O)c1ccc2c(c1)N(C)C(=O)c1ccccc1S2
[2]
  IC50: > 99 µM (inactive)
[3]
  IC50: 8.14 µM (active)
[4]
  IC50: > 100 µM (inactive)
[5]
  IC50: 8.67 µM (active)
[6]
  IC50: > 100 µM (inactive)
[7]
  IC50: 1.55 µM (active)
[8]
  IC50: 11.7 µM (active)
[9]
  IC50: 22.2 µM (active)
[10]
  IC50: 12.9 µM (inactive)
[11]
  IC50: 16.6 µM (inactive)

## CC(C)c1ccc(S(=O)(=O)NCc2ccc(C(=O)NCCN(Cc3ccccc3)C(C)C)cc2)cc1
[12]
  IC50: 1.57 µM (active)
[13]
  IC50: 0.531 µM (active)
[14]
  IC50: 0.66 µM (active)
[15]
  IC50: > 32 µM (inactive)

## Cc1cc(OCC(=O)O)ccc1[S+](C)[O-] (stereo unspecified)
[16]
  IC50: > 100 µM (inactive)
[17]
  IC50: > 100 µM (inactive)
[18]
  IC50: > 100 µM (inactive)
[19]
  IC50: > 99 µM (inactive)
[20]
  IC50: > 100 µM (inactive)
[21]
  IC50: > 99 µM (inactive)
[22]
  IC50: > 100 µM (inactive)
[23]
  IC50: > 100 µM (inactive)

## O=C(COc1ccccc1Cl)N[C@@H]1CCCN(Cc2ccccc2)C1
[24]
  EC50: 10 µM (active)

## O=C(Nc1ccc(Cl)c([N+](=O)[O-])c1)c1ccc2ccccc2c1O
[25]
  IC50: 0.692 µM (active)
[26]
  IC50: 4.04 µM (active)
[27]
  IC50: 0.87 µM (active)

## CCCCC(=O)NNC=C1C(=O)N(CC)C(=S)N(CC)C1=O
[28]
  IC50: > 66.6 µM (inactive)

## COc1cc(/C=C2\C(=O)ON=C2c2ccccc2)cc(Cl)c1O
[29]
  EC50: > 32 µM (inactive)

## O=C(Cn1c(=O)c2cccn2c2cccnc21)NCCCN1CCN(Cc2ccccc2)CC1
[30]
  IC50: 11 µM (inactive)
[14]
  IC50: > 32 µM (inactive)
[15]
  IC50: > 32 µM (inactive)
[31]
  IC50: > 20 µM (inactive)

## NC(=O)c1ccc(Cn2c(C(=O)c3cc(Cl)c(N)c(Cl)c3)c3ccccc3[n+]2[O-])cc1
[32]
  IC50: > 20 µM (inactive)
[33]
  IC50: > 20 µM (inactive)
[34]
  IC50: 10.8 µM (active)
